Assay results reported in patent US20090093509A1, “Methods and Compositions for the Treatment of Pruritus” (priority 2007, published 2009).
Structures can show the parent of a compound that is named as a salt.

Experiment: pH of aqueous solution
Format: physicochemical
Method: The pH of the formulations of the invention are greater than 3 and less than 7. For example, the pH can be 3-7, 3-6, 4-7, 4-6, or 4-5. The pH of the solution and the measured pH of the topical composition may not be the same. For the purposes of this specification, either pH may be relevant but it is preferred that the pH is defined as that in the aqueous phase and not in the final cream. The pH of a 0.1% w/v aqueous solution of nalmefene hydrochloride is 6.13 at 22.5° C.: the corresponding values for 1% and 5% solutions are 5.76 and 4.66.

With C=C1CC[C@@]2(O)[C@H]3Cc4ccc(O)c5c4[C@@]2(CCN3CC2CC2)[C@H]1O5 [nalmefene hydrochloride, 6-methylene-6-desoxy-N-cyclopropylmethyl-14-hydroxydihydronormorphine] as the compound, how does the “pH of aqueous solution” value (0.1% w/v aqueous solution, 22.5° C.) read?
Its value is 6.13.

And the “pH of aqueous solution” value (1% solution)?
Its value is 5.76.

What about the “pH of aqueous solution” value (5% solution) of the same compound?
The value was 4.66.
